“Also recorded” adds a separate entry of the source.
Legend:
[1] = tested on: intestinal stricture associated with Crohn's disease; assay: Effect of tranilast on progression of intestinal stricture in Crohn's disease patients, randomized against a group not given tranilast; type: in vivo, human (Crohn's disease patients)
Procedure: In 24 Crohn's disease patients with non-symptomatic intestinal stricture, the effect by tranilast on the progression of intestinal stricture associated with Crohn's disease was evaluated and compared between one group administered tranilast and another group not administered tranilast. There was no significant difference in backgrounds of the patients between the groups. The 24 patients were randomly divided into two groups consisting of a group administered tranilast (12 cases) and a group not administered tranilast (12 cases). […] The primary endpoint was a cumulative non-symptomatic stricture rate which was a rate of cases wherein severe symptomatic intestinal stricture requiring balloon dilatation or surgery occurred. In addition, the diameters of the stricture at the beginning of observation (basal diameter) and at the end of observation (final diameter) were measured. The secondary endpoint was a monthly progression rate of the stricture obtained from the rate of the final diameter relative to the basal diameter.

Crohn's disease = details: single case; tranilast with enteral nutrients, low residue diet and mepenzolate bromide; cited from earlier work

COc1ccc(C=CC(=O)Nc2ccccc2C(=O)O)cc1OC [tranilast, N-(3,4-dimethoxycinnamoyl)anthranilic acid]
monthly progression rate of the stricture ([1]; from the final diameter relative to the basal diameter, −0.86% in the group not given tranilast): -0.48%
average diameter of the stricture at the end of observation (final diameter) ([1]; group administered tranilast 200 mg three times daily, median observation 782 days): 5.60 mm
average diameter of the stricture at the beginning of observation (basal diameter) ([1]; group administered tranilast, baseline): 6.40 mm
cases withdrawn due to discontinued administration because of a reduced peripheral white blood cell count ([1]; of 12 cases, tranilast 200 mg three times daily): 1 case
number of cases who required balloon dilatation due to severe intestinal stricture ([1]; tranilast 200 mg three times daily orally, 12 cases, 5 cases in the group not given tranilast): 1 case
incidence of intestinal obstruction/stricture symptoms due to intestinal stricture (cumulative non-symptomatic stricture rate) ([1]; tranilast 600 mg per day versus the group not given tranilast, p=0.0034): significantly inhibited; also recorded: significantly low
period maintained without exacerbation of symptoms of Crohn's disease (Crohn's disease): 3 years

Reference: US20100113597A1, “PHARMACEUTICAL COMPOSITION FOR PREVENTION OF PROGRESS OF INTESTINAL CONSTRICTION ASSOCIATED WITH CROHN'S DISEASE” (priority 2007, published 2010)
